From patent US20110151529A1, “METHODS AND PROCESSES FOR PRODUCING ORGANIC ACIDS” (THE OHIO STATE UNIVERSITY, priority 2008, published 2011)

Test system: C. tyrobutyricum adapted culture from the FBB
Format: cell-based, Clostridium tyrobutyricum
Settings: butyrate concentration increased from nil to 30 g/L

## CCCC(=O)O [butyric acid]
  growth ability retained: more than 50%
